Reference: US8383663B2, “Bendamustine anionic-catioinic cyclopolysaccharide compositions” (priority 2010, dated 2013)
Where a name gives a salt, the structure may show the parent alone.

System: human breast carcinoma MDA-MB-231 cells
Experiment: Growth of subcutaneous solid tumors of human breast carcinoma MDA-MB-231 cells in mice
Type: in vivo, Balb/c mice
Settings: 35 mg/kg i.v. on day 1, 2, 13 and 14, Average (SEM)
Description: Effect of bendamustine in a composition comprising sodium sulfobutyl ether β-cyclodextrin and heptakis(6-amino-6-deoxy-β-cyclodextrin) on growth of subcutaneous solid tumors of human breast carcinoma MDA-MB-231 cells in Balb/c mice.
Balb/c mice aging 5 to 6 weeks were purchased from Charles River Canada Inc. The animals were kept 5 per cage with an air filter cover under light (12 light/dark cycle, light on at 6H00) and temperature (22°±1° C.)-controlled environment. All manipulations of animals were performed under a sterilized laminar. The animals had ad libitum access to Purina mouse chow (Pro Lab PMH 4018, Trademark of Agway, Syracuse, N.Y.) and water. These animal studies were conducted according to the “Guidelines for Care and Use of Experimental Animals”.
Human breast cancer cells MDA-MB 231 were cultured in the appropriated culture medium. The cells were harvested in their logarithmic growth phase for the preparation of tumor implantation.
MDA-MB-231 cells (5.0×10^5 cells per an injection) in culture medium with 30% Matrigel were subcutaneously inoculated at 2 sides of the flank of each animal. Nine to ten days after implantation, when tumor size reaches to 0.5 to 0.8 cm in the diameter, the animals were be randomly divided into groups, 5 animals per group. The treatments by intravenously injection were performed on day 1, 2, 13 and 14. The control group was treated with isotonic saline. The reference group was treated with 35 mg/kg dose of bendamustine HCl in water (7 mg/mL). The test group was treated with 60 mg/kg dose (equitoxic to the reference group treatment) of the composition of the present invention, comprising 13 mg/g bendamustine HCl, 20% SBECD and 1% H6A, and mannitol, prepared according to the procedure set forth in Example 1.
Subcutaneous solid tumor measurements were performed on the day of first injection and at 3- to 4-day intervals thereafter. Two largest perpendicular diameters of each tumor were measured with calipers and tumor size was estimated using formula […] where TV: tumor volume; L: length; W: width.
The body weights of animals were also noted.

Cn1c(CCCC(=O)O)nc2cc(N(CCCl)CCCl)ccc21 [Reference BM, bendamustine HCl]
Tumor weight after treatment (day 0): 0.111 (0.013) g
Tumor weight after treatment (day 2): 0.123 (0.016) g
Tumor weight after treatment (day 5): 0.134 (0.015) g
Tumor weight after treatment (day 7): 0.146 (0.017) g
Tumor weight after treatment (day 9): 0.156 (0.017) g
Tumor weight after treatment (day 12): 0.174 (0.018) g
Tumor weight after treatment (day 14): 0.205 (0.021) g
Tumor weight after treatment (day 16): 0.228 (0.024) g
Tumor weight after treatment (day 19): 0.248 (0.035) g
Tumor weight after treatment (day 21): 0.272 (0.042) g
Tumor weight after treatment (day 23): 0.296 (0.047) g
